These results are taken from US20260069571A1, “DDR1 AND DDR2 INHIBITORS FOR THE TREATEMENT OF CANCER AND FIBROTIC DISEASES” (REDX PHARMA PLC, priority 2021, published 2026).

In assay [1] the target is Recombinant human DDR2 (Homo sapiens (Human), UniProt Q16832). Kind of assay: LanthaScreen Eu Kinase Binding Assay, DDR2. Particulars: DDR2 1.75 nM (aa427-855, GST tag), Kinase Tracer 178 10 nM; for IC50: read-out: DDR2 pIC50 (converted). The protocol:
(§1) DDR1 and DDR2 Biochemical Assay Method
(§2) The capacity of compounds to bind to DDR1 and DDR2 was quantified using a LanthaScreen Eu Kinase Binding Assay. Recombinant human DDR1 (2.5 nM; aa440-876 containing a GST tag) and DDR2 (1.75 nM; aa427-855 containing a GST tag) were diluted in assay buffer (50 mM HEPES pH7.3, 10 mM MgCl2, 1 mM EGTA and 0.01% Tween) with various concentrations of compound in a 384-well plate and a volume of 5 uL. After a 30-minute incubation at room temperature, 2.5 uL of Eu-anti GST antibody (diluted to 1 nM in assay buffer) plus Kinase Tracer 178 (diluted in assay buffer to 5 nM for DDR1 and 10 nM for DDR2) were added to the plate. Following 60-minute incubation at room temperature, time-resolved fluorescence was measured on a BMG Labtech PHERAstar plate reader. DMSO (1%) and reference compound (1 μM) were used to generate the Max and Min assay signals, respectively. Data was analysed using a four-parameter logistic model to calculate IC50 values, with at least two independent replicates were performed for each compound.
(Time-resolved FRET reads energy transfer from a long-lived donor to a nearby acceptor.)

In assay [2] the target is Recombinant human DDR1 (Homo sapiens (Human), UniProt Q08345). Kind of assay: LanthaScreen Eu Kinase Binding Assay, DDR1. To be noted: DDR1 2.5 nM (aa440-876, GST tag), Kinase Tracer 178 5 nM; for IC50: read-out: DDR1 pIC50 (converted). The protocol:
as §1, §2

Sequence of Recombinant human DDR2 (Q16832 427-855): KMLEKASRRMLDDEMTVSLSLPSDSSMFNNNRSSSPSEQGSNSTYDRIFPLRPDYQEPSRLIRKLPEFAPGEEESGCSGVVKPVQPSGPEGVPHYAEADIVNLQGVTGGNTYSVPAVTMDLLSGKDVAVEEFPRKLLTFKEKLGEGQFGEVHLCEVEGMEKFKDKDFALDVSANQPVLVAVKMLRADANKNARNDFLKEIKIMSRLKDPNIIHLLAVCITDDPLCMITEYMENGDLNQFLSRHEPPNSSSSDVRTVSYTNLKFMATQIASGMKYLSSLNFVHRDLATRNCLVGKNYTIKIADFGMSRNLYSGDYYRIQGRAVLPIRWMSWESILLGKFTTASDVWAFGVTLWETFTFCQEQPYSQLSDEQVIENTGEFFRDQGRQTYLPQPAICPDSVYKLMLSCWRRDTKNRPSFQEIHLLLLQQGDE
Sequence of Recombinant human DDR1 (Q08345 other isoform, or with tags, fused parts or gaps): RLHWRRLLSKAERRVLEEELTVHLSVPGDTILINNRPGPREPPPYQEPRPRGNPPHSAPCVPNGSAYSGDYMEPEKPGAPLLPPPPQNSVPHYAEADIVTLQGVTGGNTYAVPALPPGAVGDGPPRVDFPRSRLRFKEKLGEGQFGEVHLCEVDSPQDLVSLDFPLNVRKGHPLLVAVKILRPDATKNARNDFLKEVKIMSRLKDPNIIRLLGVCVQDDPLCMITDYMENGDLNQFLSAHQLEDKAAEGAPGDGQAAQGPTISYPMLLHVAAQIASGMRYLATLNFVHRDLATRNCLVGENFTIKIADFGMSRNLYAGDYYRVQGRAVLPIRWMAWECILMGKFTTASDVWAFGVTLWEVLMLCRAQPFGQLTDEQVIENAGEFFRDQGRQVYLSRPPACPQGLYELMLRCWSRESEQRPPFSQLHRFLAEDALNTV

Take `CN(CC(F)(F)F)C(=O)CN1Cc2cccc(Nc3ccc4c(cnn4C)c3)c2C1=O` [Example 43, N-methyl-2-[7-[(1-methylindazol-5-yl)amino]-1-oxo-isoindolin-2-yl]-N-(2,2,2-trifluoroethyl)acetamide]: in assay [1], the IC50 was 10 to 100 nM. In addition, in assay [2], the “DDR1 pIC50” value was “A (pIC50>8)”.
As to `N#Cc1cc(Nc2cccc3c2C(=O)N(CC(=O)NCC(F)(F)F)C3)cc2cn[nH]c12` [Example 60, 2-[7-[(7-cyano-1H-indazol-5-yl)amino]-1-oxo-isoindolin-2-yl]-N-(2,2,2-trifluoroethyl)acetamide], in assay [1], the “DDR2 pIC50” value is on record as “A (pIC50>8)”. Also, the “DDR1 pIC50” value in assay [2] is listed as “A (pIC50>8)”.
Take `Cc1n[nH]c2cc(Nc3cccc4c3C(=O)N(CC(=O)N3CCCC[C@H]3C(F)(F)F)C4)ccc12` [Example 42, 7-[(3-methyl-1H-indazol-6-yl)amino]-2-[2-oxo-2-[(2S)-(trifluoromethyl)-1-piperidyl]ethyl]isoindolin-1-one]: the IC50 in assay [1] and in assay [2] was under 10 nM each time.
For `CN(c1ccc2c(cnn2C)c1)c1cccc2c1C(=O)N(CC(=O)N1CCC[C@H]1C(F)F)C2` [Example 95, 7-[methyl-(1-methylindazol-5-yl)amino]-2-[2-oxo-2-[(2S)-(difluoromethyl)pyrrolidin-1-yl]ethyl]isoindolin-1-one], the IC50 in assay [1] and in assay [2] was 10 to 100 nM each time.
Turning to `O=C(CN1Cc2cccc(Nc3ccc4[nH]ncc4c3)c2C1=O)NCC(F)(F)F` [Example 21, 2-[7-(1H-indazol-5-ylamino)-1-oxo-isoindolin-2-yl]-N-(2,2,2-trifluoroethyl)acetamide], the IC50 in assay [1] was 10 to 100 nM. For the same compound, in assay [2], the “DDR1 pIC50” value is listed as “A (pIC50>8)”.
Consider `Cc1n[nH]c2cc(Nc3cccc4c3C(=O)N(CC(=O)N[C@@H](C)C(F)(F)F)C4)cnc12` [Example 66, 2-[7-[(3-methyl-1H-pyrazolo[4,3-b]pyridin-6-yl)amino]-1-oxo-isoindolin-2-yl]-N-[(1S)-2,2,2-trifluoro-1-methyl-ethyl]acetamide], for which the “DDR2 pIC50” value in assay [1] is “A (pIC50>8)”. Moreover, in assay [2], the “DDR1 pIC50” value is given as “A (pIC50>8)”.
Turning to `Cn1ncc2cc(Nc3cccc4c3C(=O)N(CC(=O)N3CCC[C@H]3C(F)F)C4)ccc21` [Example 16, 2-[2-[(2S)-(difluoromethyl)pyrrolidin-1-yl]-2-oxo-ethyl]-7-[(1-methylindazol-5-yl)amino]isoindolin-1-one], the IC50 in assay [1] and in assay [2] was under 10 nM each time.
Turning to `Cc1n[nH]c2cc(Nc3cccc4c3C(=O)N(CC(=O)Nc3cnoc3)C4)cc(F)c12` [Example 65, 2-[7-[(4-fluoro-3-methyl-1H-indazol-6-yl)amino]-1-oxo-isoindolin-2-yl]-N-isoxazol-4-yl-acetamide], in assay [1], the “DDR2 pIC50” value is reported as “D (pIC50≤6)”. Moreover, the IC50 in assay [2] is 100 to 1000 nM.
Turning to `Cc1n[nH]c2cc(Nc3cccc4c3C(=O)N(CC(=O)N3CC(C(F)(F)F)C3)C4)ccc12` [Example 34, 7-[(3-methyl-1H-indazol-6-yl)amino]-2-[2-oxo-2-[3-(trifluoromethyl)azetidin-1-yl]ethyl]isoindolin-1-one], the IC50 in assay [1] and in assay [2] was 10 to 100 nM throughout.
Consider `Cn1ncc2cc(Nc3cccc4c3C(=O)N(CC(=O)N3CCCC[C@H]3C(F)(F)F)C4)ccc21` [Example 14, 7-[(1-methylindazol-5-yl)amino]-2-[2-oxo-2-[(2S)-(trifluoromethyl)-1-piperidyl]ethyl]isoindolin-1-one], for which the IC50 in assay [1] and in assay [2] was under 10 nM each time.
With `Cn1ncc2cc(Nc3cccc4c3C(=O)N(CC(=O)N3CCC[C@H]3C(F)F)C4)cnc21` [Example 58, 7-[(1-methylpyrazolo[3,4-b]pyridin-5-yl)amino]-2-[2-oxo-2-[(2S)-(difluoromethyl)pyrrolidin-1-yl]ethyl]isoindolin-1-one], the IC50 in assay [1] was 10 to 100 nM. Moreover, in assay [2], the “DDR1 pIC50” value is recorded as “A (pIC50>8)”.
As for `Cn1ncc2cc(Nc3cccc4c3C(=O)N(CC(=O)Nc3cccc(C(F)(F)F)c3)C4)cnc21` [Example 59, 2-[7-[(1-methylpyrazolo[3,4-b]pyridin-5-yl)amino]-1-oxo-isoindolin-2-yl]-N-[3-(trifluoromethyl)phenyl]acetamide], the IC50 was 100 to 1000 nM in assay [1] and 10 to 100 nM in assay [2].
With `Cc1n[nH]c2cc(Nc3cccc4c3C(=O)N(CC(=O)N3CCOC[C@H]3C(F)(F)F)C4)cnc12` [Example 70, 7-[(3-methyl-1H-pyrazolo[4,3-b]pyridin-6-yl)amino]-2-[2-oxo-2-[(3S)-(trifluoromethyl)morpholin-4-yl]ethyl]isoindolin-1-one], the IC50 in assay [1] is at least 1000 nM; in assay [2] it was 100 to 1000 nM.
Take `CC(C)c1n[nH]c2cc(Nc3cccc4c3C(=O)N(CC(=O)NCC(F)(F)F)C4)ccc12` [Example 80, 2-[7-[(3-isopropyl-1H-indazol-6-yl)amino]-1-oxo-isoindolin-2-yl]-N-(2,2,2-trifluoroethyl)acetamide]: the IC50 in assay [1] and in assay [2] was 100 to 1000 nM in each case.
With `Cc1n[nH]c2cc(Nc3cccc4c3C(=O)N(CC(=O)N3CCOC(C(F)(F)F)C3)C4)ccc12` (centres unmarked) [Example 38, 7-[(3-methyl-1H-indazol-6-yl)amino]-2-[2-oxo-2-[2-(trifluoromethyl)morpholin-4-yl]ethyl]isoindolin-1-one], the IC50 in assay [1] was 10 to 100 nM. In assay [2], the “DDR1 pIC50” value was “A (pIC50>8)”.
For `Cn1ncc2cc(Nc3nccc4c3C(=O)N(CC(=O)N3CCC[C@H]3C(F)(F)F)C4)ccc21` [Example 97, 4-[(1-methylindazol-5-yl)amino]-2-[2-oxo-2-[(2S)-(trifluoromethyl)pyrrolidin-1-yl]ethyl]-1H-pyrrolo[3,4-c]pyridin-3-one], the IC50 was 100 to 1000 nM in assay [1] and 10 to 100 nM in assay [2].
`Cn1ncc2cc(Nc3cccc4c3C(=O)N(CC(=O)NCC(F)(F)F)C4(F)F)ccc21` [Example 79, 2-[1,1-difluoro-4-[(1-methylindazol-5-yl)amino]-3-oxo-isoindolin-2-yl]-N-(2,2,2-trifluoroethyl)acetamide]: the “DDR2 pIC50” value in assay [1] is “D (pIC50≤6)”. Also, the IC50 in assay [2] was 10 to 100 nM.
For the compound `CC1c2cccc(Nc3ccc4c(cnn4C)c3)c2C(=O)N1CC(=O)NCC(F)(F)F` (centres unmarked) [Example 15, 2-[1-methyl-4-[(1-methylindazol-5-yl)amino]-3-oxo-isoindolin-2-yl]-N-(2,2,2-trifluoroethyl)acetamide], the IC50 in assay [1] and in assay [2] was 10 to 100 nM in each case.
For `Cc1n[nH]c2cc(Nc3cccc4c3C(=O)N(CC(=O)Nc3ccc(CN(C)C)c(C(F)(F)F)c3)C4)ccc12` [Example 37, N-[4-[(dimethylamino)methyl]-3-(trifluoromethyl)phenyl]-2-[7-[(3-methyl-1H-indazol-6-yl)amino]-1-oxo-isoindolin-2-yl]acetamide], the IC50 in assay [1] is 10 to 100 nM. The “DDR1 pIC50” value in assay [2] is reported as “A (pIC50>8)”.
As to `Cn1ncc2cc(Nc3cccc4c3C(=O)N(CC(=O)N3CCOC[C@H]3C(F)(F)F)C4)ccc21` [Example 44, 7-[(1-methylindazol-5-yl)amino]-2-[2-oxo-2-[(3S)-(trifluoromethyl)morpholin-4-yl]ethyl]isoindolin-1-one], the figures for the IC50 in assay [1] and in assay [2] were 100 to 1000 nM and 10 to 100 nM, respectively.
As to `CN(c1cnc2[nH]ncc2c1)c1cccc2c1C(=O)N(CC(=O)NCC(F)(F)F)C2` [Example 90, 2-[7-[methyl(1H-pyrazolo[3,4-b]pyridin-5-yl)amino]-1-oxo-isoindolin-2-yl]-N-(2,2,2-trifluoroethyl)acetamide], the results for the IC50 in assay [1] and in assay [2] were 100 to 1000 nM and 10 to 100 nM, respectively.
Turning to `C[C@H](NC(=O)CN1Cc2cccc(Nc3cnc4c(cnn4C)c3)c2C1=O)C(F)(F)F` [Example 53, 2-[7-[(1-methylpyrazolo[3,4-b]pyridin-5-yl)amino]-1-oxo-isoindolin-2-yl]-N-[(1S)-2,2,2-trifluoro-1-methyl-ethyl]acetamide], the IC50 in assay [1] was 10 to 100 nM. For the same compound, the “DDR1 pIC50” value in assay [2] is “A (pIC50>8)”.
Consider `Cc1n[nH]c2cc(Nc3cccc4c3C(=O)N(CC(=O)N3CCCC(C(F)(F)F)C3)C4)ccc12` (centres unmarked) [Example 32, 7-[(3-methyl-1H-indazol-6-yl)amino]-2-[2-oxo-2-[3-(trifluoromethyl)-1-piperidyl]ethyl]isoindolin-1-one], for which the “DDR2 pIC50” value in assay [1] was “A (pIC50>8)”. In addition, in assay [2], the “DDR1 pIC50” value was “A (pIC50>8)”.
In the case of `CN(C)Cc1ccc(NC(=O)CN2Cc3cccc(Nc4ccc5c(cnn5C)c4)c3C2=O)cc1C(F)(F)F` [Example 13, N-[4-[(dimethylamino)methyl]-3-(trifluoromethyl)phenyl]-2-[7-[(1-methylindazol-5-yl)amino]-1-oxo-isoindolin-2-yl]acetamide], the IC50 in assay [1] is 10 to 100 nM. Besides, the “DDR1 pIC50” value in assay [2] is “A (pIC50>8)”.
On to `CN(C)Cc1cc(NC(=O)CN2Cc3cccc(Nc4ccc5c(cnn5C)c4)c3C2=O)cc(C(F)(F)F)c1` [Example 20, N-[3-[(dimethylamino)methyl]-5-(trifluoromethyl)phenyl]-2-[7-[(1-methylindazol-5-yl)amino]-1-oxo-isoindolin-2-yl]acetamide], for which the IC50 in assay [1] is 10 to 100 nM. In addition, in assay [2], the “DDR1 pIC50” value is on record as “A (pIC50>8)”.
